According to PMC9516332 (Frontiers in Oncology, 2022):
Where two headings read alike, the source gives them in different places.

Experiments:
Test in all cases: Kinase panel profiling at 1 µmol/L (MSA or IMAP), percentage inhibition
Type in all cases: biochemical
[1] = target: T1, panel of 255 wild-type kinases (Homo sapiens, UniProt Q15139); details: read-out: %-inhibition at 1 µmol/L, PKD1
T1 sequence (Q15139 1-912): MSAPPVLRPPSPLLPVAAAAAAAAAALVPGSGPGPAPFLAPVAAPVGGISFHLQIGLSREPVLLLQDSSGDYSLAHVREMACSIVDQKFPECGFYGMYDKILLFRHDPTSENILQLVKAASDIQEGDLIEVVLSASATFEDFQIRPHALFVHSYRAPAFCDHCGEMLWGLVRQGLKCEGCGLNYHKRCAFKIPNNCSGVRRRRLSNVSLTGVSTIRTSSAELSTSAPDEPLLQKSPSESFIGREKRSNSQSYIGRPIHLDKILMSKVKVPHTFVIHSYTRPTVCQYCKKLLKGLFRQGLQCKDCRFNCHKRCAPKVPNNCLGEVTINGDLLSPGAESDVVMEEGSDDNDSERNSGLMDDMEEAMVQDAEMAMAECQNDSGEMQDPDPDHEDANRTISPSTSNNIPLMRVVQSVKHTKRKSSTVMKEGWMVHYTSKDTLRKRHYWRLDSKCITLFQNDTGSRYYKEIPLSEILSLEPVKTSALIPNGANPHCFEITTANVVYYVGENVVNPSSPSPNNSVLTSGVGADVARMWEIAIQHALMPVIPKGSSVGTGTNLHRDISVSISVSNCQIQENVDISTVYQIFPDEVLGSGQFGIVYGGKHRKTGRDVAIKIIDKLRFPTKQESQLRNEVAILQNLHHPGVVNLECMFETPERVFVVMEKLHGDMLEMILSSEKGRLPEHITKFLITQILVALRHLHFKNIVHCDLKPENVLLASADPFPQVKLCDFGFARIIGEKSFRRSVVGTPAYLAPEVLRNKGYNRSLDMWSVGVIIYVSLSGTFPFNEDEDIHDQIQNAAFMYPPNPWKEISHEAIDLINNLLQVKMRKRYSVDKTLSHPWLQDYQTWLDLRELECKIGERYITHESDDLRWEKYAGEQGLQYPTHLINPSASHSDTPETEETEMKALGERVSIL

[2] = target: panel of 255 wild-type kinases (Homo sapiens, UniProt Q86Z02); details: read-out: %-inhibition at 1 µmol/L, HIPK1
[3] = target: panel of 255 wild-type kinases (Homo sapiens, UniProt P35968); details: read-out: %-inhibition at 1 µmol/L, KDR
[4] = target: T2, panel of 255 wild-type kinases (Homo sapiens, UniProt Q08881); details: read-out: %-inhibition at 1 µmol/L, ITK
T2 sequence (Q08881 1-620): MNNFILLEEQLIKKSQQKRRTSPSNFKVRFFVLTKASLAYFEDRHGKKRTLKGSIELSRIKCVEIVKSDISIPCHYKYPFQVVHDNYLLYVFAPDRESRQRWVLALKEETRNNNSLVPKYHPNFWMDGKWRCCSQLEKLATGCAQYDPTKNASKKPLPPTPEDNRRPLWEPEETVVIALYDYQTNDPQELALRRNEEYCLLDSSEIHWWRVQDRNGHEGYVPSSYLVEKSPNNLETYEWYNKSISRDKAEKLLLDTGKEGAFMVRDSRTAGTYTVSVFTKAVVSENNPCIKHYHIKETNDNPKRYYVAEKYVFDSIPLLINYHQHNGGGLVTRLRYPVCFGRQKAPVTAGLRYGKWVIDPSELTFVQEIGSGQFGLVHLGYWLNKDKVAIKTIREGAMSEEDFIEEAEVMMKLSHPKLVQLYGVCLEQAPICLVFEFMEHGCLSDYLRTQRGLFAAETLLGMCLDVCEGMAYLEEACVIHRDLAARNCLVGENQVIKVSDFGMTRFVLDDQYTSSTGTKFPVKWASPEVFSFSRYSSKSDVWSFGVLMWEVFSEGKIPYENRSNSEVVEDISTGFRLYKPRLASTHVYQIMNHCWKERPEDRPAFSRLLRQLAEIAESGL

[5] = target: panel of 255 wild-type kinases (Homo sapiens, UniProt P78362); details: read-out: %-inhibition at 1 µmol/L, SRPK2
[6] = target: panel of 255 wild-type kinases (Homo sapiens, UniProt Q9UBS0); details: read-out: %-inhibition, p70S6Kβ
[7] = kinase PKD1, 1 µmol/L single concentration
[8] = kinase HIPK1, 1 µmol/L single concentration
[9] = kinase KDR, 1 µmol/L single concentration
[10] = kinase ITK, 1 µmol/L single concentration
[11] = kinase SRPK2, 1 µmol/L single concentration
[12] = p70S6Kβ, 1 µmol/L single concentration

SMILES: CO[C@]1(C(=O)N[C@@H](C)c2ccc(-n3cc(F)cn3)nc2)CC[C@H](c2nc(C)cc(Nc3cc(C)[nH]n3)n2)CC1 [pralsetinib]
- inhibition at 1 µM [1, 7]: 0.3%
- inhibition at 1 µM [2, 8]: 13%
- inhibition at 1 µM [3, 9]: 95%
- inhibition at 1 µM [4, 10]: 59%
- inhibition at 1 µM [5, 11]: -2.72%
- inhibition at 1 µM [6, 12]: 5.54%

SMILES: COc1cc2ncnc(Nc3ccc(F)c(Cl)c3)c2cc1NC(=O)/C=C/CN1CCCCC1 [dacomitinib]
- inhibition at 1 µM [1, 7]: 9.49%
- inhibition at 1 µM [2, 8]: 3.42%
- inhibition at 1 µM [3, 9]: 42%
- inhibition at 1 µM [4, 10]: 24%
- inhibition at 1 µM [5, 11]: 0.863%
- inhibition at 1 µM [6, 12]: -0.889%

SMILES: CCn1c(=O)c(-c2cc(NC(=O)Nc3ccccc3)c(F)cc2Br)cc2cnc(NC)cc21 [ripretinib]
- inhibition at 1 µM [1, 7]: 15%
- inhibition at 1 µM [2, 8]: -5.27%
- inhibition at 1 µM [3, 9]: 111%
- inhibition at 1 µM [4, 10]: 1.24%
- inhibition at 1 µM [5, 11]: -2.82%
- inhibition at 1 µM [6, 12]: 2.19%

SMILES: Cc1nc(NC(=O)N2CCC[C@H]2C(N)=O)sc1-c1ccnc(C(C)(C)C(F)(F)F)c1 [alpelisib]
- inhibition at 1 µM [1, 7]: -2%
- inhibition at 1 µM [2, 8]: 9%
- inhibition at 1 µM [3, 9]: 8%
- inhibition at 1 µM [4, 10]: 9%
- inhibition at 1 µM [5, 11]: -1.61%
- inhibition at 1 µM [6, 12]: 4.37%

SMILES: C=CC(=O)N1CCC([C@@H]2CCNc3c(C(N)=O)c(-c4ccc(Oc5ccccc5)cc4)nn32)CC1 [zanubrutinib]
- inhibition at 1 µM [1, 7]: 5%
- inhibition at 1 µM [2, 8]: -3.58%
- inhibition at 1 µM [3, 9]: 11%
- inhibition at 1 µM [4, 10]: 34%
- inhibition at 1 µM [5, 11]: -2.35%
- inhibition at 1 µM [6, 12]: -0.467%

SMILES: O=C(Nc1cnn2ccc(N3CCC[C@@H]3c3cc(F)ccc3F)nc12)N1CC[C@H](O)C1 [larotrectinib]
- inhibition at 1 µM [1, 7]: 0.148%
- inhibition at 1 µM [2, 8]: -3.73%
- inhibition at 1 µM [3, 9]: 6%
- inhibition at 1 µM [4, 10]: 13%
- inhibition at 1 µM [5, 11]: -3%
- inhibition at 1 µM [6, 12]: 4.22%

SMILES: Cc1cc(Nc2ncnc3ccc(NC4=NC(C)(C)CO4)cc23)ccc1Oc1ccn2ncnc2c1 [tucatinib]
- inhibition at 1 µM [1, 7]: 28%
- inhibition at 1 µM [2, 8]: 11%
- inhibition at 1 µM [3, 9]: 4.29%
- inhibition at 1 µM [4, 10]: 1.31%
- inhibition at 1 µM [5, 11]: -0.581%
- inhibition at 1 µM [6, 12]: 3.57%

SMILES: FC(F)(F)c1ccc(CNc2ccc(Cc3c[nH]c4ncc(Cl)cc34)cn2)cn1 [pexidartinib]
- inhibition at 1 µM [1, 7]: -2.56%
- inhibition at 1 µM [2, 8]: 4.72%
- inhibition at 1 µM [3, 9]: 81%
- inhibition at 1 µM [4, 10]: 9%
- inhibition at 1 µM [5, 11]: -1.19%
- inhibition at 1 µM [6, 12]: 7%

SMILES: Cn1cnc2c(F)c(Nc3ccc(Br)cc3F)c(C(=O)NOCCO)cc21 [binimetinib]
- inhibition at 1 µM [1, 7]: -1.69%
- inhibition at 1 µM [2, 8]: 0.44%
- inhibition at 1 µM [3, 9]: 15%
- inhibition at 1 µM [4, 10]: 1.61%
- inhibition at 1 µM [5, 11]: -1.4%
- inhibition at 1 µM [6, 12]: 1.09%

SMILES: CN1CCN(c2ccc(C(=O)Nc3n[nH]c4ccc(Cc5cc(F)cc(F)c5)cc34)c(NC3CCOCC3)c2)CC1 [entrectinib]
- inhibition at 1 µM [1, 7]: 1.46%
- inhibition at 1 µM [2, 8]: 11%
- inhibition at 1 µM [4, 10]: 99%
- inhibition at 1 µM [5, 11]: 21%
- inhibition at 1 µM [6, 12]: 0.699%

SMILES: COC(=O)N[C@@H](C)CNc1nccc(-c2cn(C(C)C)nc2-c2cc(Cl)cc(NS(C)(=O)=O)c2F)n1 [encorafenib]
- inhibition at 1 µM [1, 7]: 0.18%
- inhibition at 1 µM [2, 8]: 5.6%
- inhibition at 1 µM [3, 9]: 22%
- inhibition at 1 µM [4, 10]: 3.49%
- inhibition at 1 µM [5, 11]: 2%
- inhibition at 1 µM [6, 12]: 8%

SMILES: C[C@H]1Oc2cc(cnc2N)-c2c(nn(C)c2C#N)CN(C)C(=O)c2ccc(F)cc21 [lorlatinib]
- inhibition at 1 µM [1, 7]: -0.468%
- inhibition at 1 µM [2, 8]: -1.71%
- inhibition at 1 µM [3, 9]: 7%
- inhibition at 1 µM [4, 10]: 14%
- inhibition at 1 µM [5, 11]: 4%
- inhibition at 1 µM [6, 12]: 11%

SMILES: CCN1CCN(c2ccc(Nc3cc(N(C)C(=O)Nc4c(Cl)c(OC)cc(OC)c4Cl)ncn3)cc2)CC1 [infigratinib]
- inhibition at 1 µM [1, 7]: 11%
- inhibition at 1 µM [2, 8]: -4.25%
- inhibition at 1 µM [3, 9]: 92%
- inhibition at 1 µM [4, 10]: 6%
- inhibition at 1 µM [5, 11]: -5.51%
- inhibition at 1 µM [6, 12]: 5.43%

SMILES: COc1ccc(CN2C3CC2CN(c2ccc(-c4cc(OCC(C)(C)O)cn5ncc(C#N)c45)cn2)C3)cn1 [selpercatinib]
- inhibition at 1 µM [1, 7]: 3.64%
- inhibition at 1 µM [2, 8]: -0.334%
- inhibition at 1 µM [3]: 99%
- inhibition at 1 µM [4, 10]: 79%
- inhibition at 1 µM [5, 11]: -0.197%
- inhibition at 1 µM [6, 12]: 6.63%

SMILES: Cn1cnc2c(F)c(Nc3ccc(Br)cc3Cl)c(C(=O)NOCCO)cc21 [selumetinib]
- inhibition at 1 µM [1, 7]: -0.6%
- inhibition at 1 µM [2, 8]: 0.0183%
- inhibition at 1 µM [3, 9]: 2.42%
- inhibition at 1 µM [4, 10]: 4.28%
- inhibition at 1 µM [5, 11]: -2.61%
- inhibition at 1 µM [6, 12]: 8%

SMILES: CCc1nc(C(N)=O)c(Nc2ccc(N3CCC(N4CCN(C)CC4)CC3)c(OC)c2)nc1NC1CCOCC1 [gilteritinib]
- inhibition at 1 µM [1, 7]: 52%
- inhibition at 1 µM [2, 8]: 71%
- inhibition at 1 µM [3, 9]: 104%
- inhibition at 1 µM [4, 10]: 92%
- inhibition at 1 µM [5, 11]: 12%
- inhibition at 1 µM [6, 12]: 23%

SMILES: CCN1C(=O)N(c2c(F)c(OC)cc(OC)c2F)Cc2cnc3[nH]c(CN4CCOCC4)cc3c21 [pemigatinib]
- inhibition at 1 µM [1, 7]: 10%
- inhibition at 1 µM [2, 8]: 1.47%
- inhibition at 1 µM [3]: 96%
- inhibition at 1 µM [4, 10]: 2%
- inhibition at 1 µM [5, 11]: -6%
- inhibition at 1 µM [6, 12]: -0.851%

SMILES: Cn1cc(-c2cc3c(N4CCN(c5ncc([C@@](C)(N)c6ccc(F)cc6)cn5)CC4)ncnn3c2)cn1 [avapritinib]
- inhibition at 1 µM [1, 7]: 6.4%
- inhibition at 1 µM [2, 8]: 1.58%
- inhibition at 1 µM [3, 9]: 71%
- inhibition at 1 µM [4, 10]: 19%
- inhibition at 1 µM [5, 11]: -0.951%
- inhibition at 1 µM [6, 12]: 6%

SMILES: CNC(=O)c1ccc(-c2cnc3ncc(Cc4ccc5ncccc5c4)n3n2)cc1F [capmatinib]
- inhibition at 1 µM [1]: -5%
- inhibition at 1 µM [2]: -2.58%
- inhibition at 1 µM [3]: 4%
- inhibition at 1 µM [4]: 5%
- inhibition at 1 µM [5]: -9%
- inhibition at 1 µM [6]: 12%

SMILES: C[C@H](Nc1ncnc2nc[nH]c12)c1cc2cccc(Cl)c2c(=O)n1-c1ccccc1 [duvelisib]
- inhibition at 1 µM [1, 7]: -3.47%
- inhibition at 1 µM [2, 8]: 0.739%
- inhibition at 1 µM [3, 9]: 11%
- inhibition at 1 µM [4, 10]: 9%
- inhibition at 1 µM [5, 11]: -0.863%
- inhibition at 1 µM [6, 12]: 2.47%
